For 17 molecules, IC50 results are on record in US9862706B2, “Compounds” (CHIESI FARMACEUTICI S.P.A., priority 2016, dated 2018).

The experiment concerns the target T1, human neutrophil elastase (HNE) (Homo sapiens, UniProt P08246).
T1 construct: purchased Sigma E8140
T1 sequence (P08246 30-247 limits assumed): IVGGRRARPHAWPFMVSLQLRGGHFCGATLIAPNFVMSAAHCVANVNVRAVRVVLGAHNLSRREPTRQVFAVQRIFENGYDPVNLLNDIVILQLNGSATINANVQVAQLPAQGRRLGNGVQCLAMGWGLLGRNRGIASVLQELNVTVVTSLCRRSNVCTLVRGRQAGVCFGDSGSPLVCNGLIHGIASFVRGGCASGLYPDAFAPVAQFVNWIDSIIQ
The experiment can be described thus: HNE enzyme assay. The format is biochemical. The conditions noted are these: human leukocyte elastase 0.00072 U/mL; substrate MeOSuc-Ala-Ala-Pro-Val-AMC 100 μM; 25° C., 30 minutes; at least two separate experiments; read-out: HNE inhibition. On the procedure:
Compounds of this invention were tested for potency in a human neutrophil elastase (HNE) enzyme activity assay. HNE Enzyme Assay Assays were performed in 96-well plates in a total assay volume of 100 μL. The final concentration of elastase enzyme (human leukocyte elastase, Sigma E8140) was 0.00072 U/mL. The peptide substrate (MeOSuc-[…], Calbiochem #324740) was used at a final concentration of 100 μM. The final concentration of DMSO was 1% in the assay buffer (0.05M Tris.HCl, 0.1M NaCl, 0.1M CaCl2, 0.0005% brij-35, pH 7.5). The enzymatic reaction was started by addition of the enzyme and incubated at 25° C. for 30 minutes. After incubation, the reaction was stopped by addition of soybean trypsin inhibitor (Sigma T9003) at a final concentration of 50 μg/well. Fluorescence was measured using a Molecular Devices fluorescence plate reader using 380 nm excitation and 460 nm emission wavelengths. A dose response to each compound was performed and the effect of compound in each experiment was expressed as a percentage inhibition of the control enzyme fluorescence. Dose response curves were plotted and compound potency (IC50) was determined. Compounds were tested in at least two separate experiments.

Take `Cc1c(-c2ccnn2-c2ccc(C#N)cc2CC[N+](C)(C)Cc2ccccc2)n(C(=O)NC2CCCC2)c(=O)n1-c1cccc(C(F)(F)F)c1` [Example 10, Benzyl-[2-(5-cyano-2-{5-[3-cyclopentylcarbamoyl-5-methyl-2-oxo-1-(3-trifluoromethyl-phenyl)-2,3-dihydro-1H-imidazol-4-yl]-pyrazol-1-yl}-phenyl)-ethyl]-dimethyl-ammonium bromide]: the IC50 is < 1 nM.
For `Cn1c(-c2ccnn2-c2ccc(C#N)cc2CC[N+](C)(C)Cc2ccccc2)c(C(=O)NC2CCCC2)c(=O)n1-c1cccc(C(F)(F)F)c1` [Example 16, Benzyl-(2-{5-cyano-2-[4′-cyclopentylcarbamoyl-2′-methyl-5′-oxo-1′-(3-trifluoromethyl-phenyl)-2′,5′-dihydro-1′H-[3,3′]bipyrazolyl-2-yl]-phenyl}-ethyl)-dimethyl-ammonium bromide], the IC50 was < 1 nM.
As to `Cn1c(-c2n(-c3ccc(C#N)cc3)nc[n+]2C)c(C(=O)NC2CCCC2)c(=O)n1-c1cccc(C(F)(F)F)c1` [Example 8, 1-(4-cyano-phenyl)-5-[4-cyclopentylcarbamoyl-2-methyl-5-oxo-1-(3-trifluoromethyl-phenyl)-2,5-dihydro-1H-pyrazol-3-yl]-4-methyl-1H-[1,2,4]triazol-4-ium benzenesulfonate], the IC50 is < 1 nM.
In the case of `Cn1c(-c2n(-c3ccc(C#N)cc3)cc[n+]2C)c(C(=O)NC2CCCC2)c(=O)n1-c1cccc(C(F)(F)F)c1` [Example 7, 3-(4-Cyano-phenyl)-2-[4-cyclopentylcarbamoyl-2-methyl-5-oxo-1-(3-trifluoromethyl-phenyl)-2,5-dihydro-1H-pyrazol-3-yl]-1-methyl-3H-imidazol-1-ium benzenesulfonate], the IC50 was < 1 nM.
`Cn1c(-c2ccnn2-c2ccc(C#N)cc2CC[N+](C)(C)C)c(C(=O)NC2CCCC2)c(=O)n1-c1cccc(C(F)(F)F)c1` [Example 15, (2-{5-Cyano-2-[4′-cyclopentylcarbamoyl-2′-methyl-5′-oxo-1′-(3-trifluoromethyl-phenyl)-2′,5′-dihydro-1′H-[3,3′]bipyrazolyl-2-yl]-phenyl}-ethyl)-trimethyl-ammonium benzene sulfonate]: the IC50 was < 1 nM.
The figure for `Cc1c(-c2n(-c3ccc(C#N)cc3)cc[n+]2C)n(C(=O)NCc2ccc(S(C)(=O)=O)cc2)c(=O)n1-c1cccc(C(F)(F)F)c1` [Example 5, 1-(4-Cyanophenyl)-2-{3-(4-methanesulfonyl-benzylcarbamoyl)-5-methyl-2-oxo-1-[3-(trifluoromethyl)phenyl]-2,3-dihydro-1H-imidazol-4-yl}-3-methyl-1H-imidazol-3-ium benzene sulfonate] is 1 to 10 nM; for `Cc1c(-c2ccnn2-c2ccc(C#N)cc2CC[N+](C)(C)C)n(C(=O)NC2CCCCC2)c(=O)n1-c1cccc(C(F)(F)F)c1` [Example 11, [2-(5-Cyano-2-{5-[3-cyclohexylcarbamoyl-5-methyl-2-oxo-1-(3-trifluoromethyl-phenyl)-2,3-dihydro-1H-imidazol-4-yl]-pyrazol-1-yl}-phenyl)-ethyl]-trimethyl-ammonium benzene sulphonate] it is < 1 nM.
Turning to `Cc1c(-c2n(-c3ccc(C#N)cc3)cc[n+]2C)n(C(=O)NC2CCN(C(=O)C(F)(F)F)CC2)c(=O)n1-c1cccc(C(F)(F)F)c1` [Example 4, 1-(4-Cyanophenyl)-2-{3-[1-(2,2,2-trifluoro-acetyl)-piperidin-4-ylcarbamoyl]-5-methyl-2-oxo-1-[3-(trifluoromethyl)phenyl]-2,3-dihydro-1H-imidazol-4-yl}-3-methyl-1H-imidazol-3-ium benzene sulfonate], the IC50 was < 1 nM.
Regarding `Cc1c(-c2n(-c3ccc(C#N)cc3)cc[n+]2C)n(C(=O)NC2CCC2)c(=O)n1-c1cccc(C(F)(F)F)c1` [Example 3, 1-(4-Cyanophenyl)-2-{3-(cyclobutylcarbamoyl)-5-methyl-2-oxo-1-[3-(trifluoromethyl)phenyl]-2,3-dihydro-1H-imidazol-4-yl}-3-methyl-1H-imidazol-3-ium benzene sulfonate], the IC50 was < 1 nM.
Take `Cc1c(-c2ccnn2-c2ccc(C#N)cc2CC[N+](C)(C)C)n(C(=O)NC(C)C)c(=O)n1-c1cccc(C(F)(F)F)c1` [Example 14, [2-(5-Cyano-2-{5-[3-isopropylcarbamoyl-5-methyl-2-oxo-1-(3-trifluoromethyl-phenyl)-2,3-dihydro-1H-imidazol-4-yl]-pyrazol-1-yl}-phenyl)-ethyl]-trimethyl-ammonium benzene sulphonate]: the IC50 was < 1 nM.
On to `Cc1c(-c2n(-c3ccc(C#N)cc3)cc[n+]2C)n(C(=O)NC2CCCC2)c(=O)n1-c1cccc(C(F)(F)F)c1` [Example 1, 1-(4-Cyanophenyl)-2-{3-(cyclopentylcarbamoyl)-5-methyl-2-oxo-1-[3-(trifluoromethyl)phenyl]-2,3-dihydro-1H-imidazol-4-yl}-3-methyl-1H-imidazol-3-ium benzene sulfonate], for which the IC50 was < 1 nM.
In the case of `Cn1c(-c2ccnn2-c2ccc(C#N)cc2CC[N+](C)(C)C)c(C(=O)NC2CCCCC2)c(=O)n1-c1cccc(C(F)(F)F)c1` [Example 17, (2-{5-Cyano-2-[4′-cyclohexylcarbamoyl-2′-methyl-5′-oxo-1′-(3-trifluoromethyl-phenyl)-2′,5′-dihydro-1′H-[3,3′]bipyrazolyl-2-yl]-phenyl}-ethyl)-trimethyl-ammonium benzene sulfonate], the IC50 is < 1 nM.
Turning to `Cc1c(-c2ccnn2-c2ccc(C#N)cc2CC[N+](C)(C)C)n(C(=O)NC2CC2)c(=O)n1-c1cccc(C(F)(F)F)c1` [Example 12, [2-(5-Cyano-2-{5-[3-cyclopropylcarbamoyl-5-methyl-2-oxo-1-(3-trifluoromethyl-phenyl)-2,3-dihydro-1H-imidazol-4-yl]-pyrazol-1-yl}-phenyl)-ethyl]-trimethyl-ammonium benzene sulphonate], the IC50 is < 1 nM.
`Cc1c(-c2ccnn2-c2ccc(C#N)cc2CC[N+](C)(C)C)n(C(=O)NC2CCCC2)c(=O)n1-c1cccc(C(F)(F)F)c1` [Example 9, [2-(5-Cyano-2-{5-[3-cyclopentylcarbamoyl-5-methyl-2-oxo-1-(3-trifluoromethyl-phenyl)-2,3-dihydro-1H-imidazol-4-yl]-pyrazol-1-yl}-phenyl)-ethyl]-trimethyl-ammonium benzene sulfonate]: the IC50 is < 1 nM.
The figure for `CCNC(=O)n1c(-c2ccnn2-c2ccc(C#N)cc2CC[N+](C)(C)C)c(C)n(-c2cccc(C(F)(F)F)c2)c1=O` [Example 13, [2-(5-Cyano-2-{5-[3-ethylcarbamoyl-5-methyl-2-oxo-1-(3-trifluoromethyl-phenyl)-2,3-dihydro-1H-imidazol-4-yl]-pyrazol-1-yl}-phenyl)-ethyl]-trimethyl-ammonium benzene sulphonate] is < 1 nM; for `Cc1c(-c2n(-c3ccc(C#N)cc3)nc[n+]2C)n(C(=O)NC2CCCC2)c(=O)n1-c1cccc(C(F)(F)F)c1` [Example 6, 1-(4-Cyano-phenyl)-5-[3-cyclopentylcarbamoyl-5-methyl-2-oxo-1-(3-trifluoromethyl-phenyl)-2,3-dihydro-1H-imidazol-4-yl]-4-methyl-1H-[1,2,4]triazol-4-ium benzene sulfonate] it is < 1 nM.
With `Cc1c(-c2n(-c3ccc(C#N)cc3)cc[n+]2Cc2ccccc2)n(C(=O)NC2CCCC2)c(=O)n1-c1cccc(C(F)(F)F)c1` [Example 2, 1-(4-Cyanophenyl)-2-{3-(cyclopentylcarbamoyl)-5-methyl-2-oxo-1-[3-(trifluoromethyl)phenyl]-2,3-dihydro-1H-imidazol-4-yl}-3-benzyl-1H-imidazol-3-ium bromide], the IC50 is < 1 nM.
